Measurements reported in US5242942A, “Anticonvulsant fructopyranose cyclic sulfites and sulfates” (McNeilab, Inc., priority 1992, dated 1993).

Tests used:
tonic extensor seizure = assay: maximal electroshock test (MES); assay type: in vivo, mouse (albino male CRS-CD1); conditions: mouse, PO, at 4 hr
Procedure: The compounds of formula (I) are particularly useful as anticonvulsant agents in mammals including humans. The anticonvulsant activity of the subject compounds was determined using a standard "maximal electroshock test" (MES). In this test, activity is indicated by a block of the […] extensor seizure caused by application of an electric shock to mice via corneal electrodes, as described by Swinyard et al. in J. Pharmacol. Expt. Ther. 1952, 106, 319, and recorded as % block. A more recent description of current anticonvulsant drug screening is given by Swinyard in Epilepsia 1978, 19, 409. The anticonvulsant activity of the compounds of this invention tested according to the Swinyard 1952 method is shown in the following Table I.
In the test, albino male CRS-CD1 mice weighing between 18-25 g were used in all experiments (obtained from Charles River). They were allowed food and water ad libitum and were used only once. The electroshock apparatus and the corneal electrodes were purchased from Wahlquist Instrument Company, Salt Lake City, Utah.
Maximal electroshock seizures were induced by the delivery of a 60 Hertz (Hz) current of 50 milliamps (mA) intensity to the mouse through corneal electrodes for 0.2 seconds as originally described by Swinyard et al. (1952). This stimulus intensity is approximately 4 to 6 times the current producing 100% tonic extensor convulsions. During the validation of the MES test, the duration of the various seizure components following maximal electroshock were measured as follows: hindleg tonic flexion was measured from the time of the application of the stimulus to the time of onset of hindleg tonic extension (i.e. when the hindlegs deviate by greater than an angle of 90° from the torso), hindleg tonic extensor was measured from the time of extensor thrust to the onset of generalized clonus, and terminal clonus was measured from the beginning to the end of bilateral rhythmic clonic jerking. Mortality was also recorded. The duration of each seizure component agreed well with the values previously reported by Tedeschi et al. in J. Pharmacol. Expt. Ther. 1955, 116, 107. The corneal electrodes were concave so that saline could be applied to the electrodes to reduce mortality. If this procedure is followed, mortality should always be less than 40% in control mice. Thus, at an electroshock stimulus of 60 Hz, 50 mA and 0.2 seconds duration, the order of convulsive components and the percentage of control animals displaying the behaviors should be as follows: tonic flexion (100%), tonic extension (100%) and clonus (100%) with less than 40% mortality.
For testing compounds, the abolition of the tonic extensor component was the endpoint. Animals were dosed orally (PO) with either vehicle or test drug and at a specified time were given a maximal electric shock through corneal electrodes blotted with saline (as described above). A minimum of 10 animals were used per group and the percentage of animals in the group without tonic hindlimb extension recorded. Determination of ED50 values (that dose of drug inhibiting 50% of the tonic extensor seizures) is shown below in Table I.

Total Acid Output = assay: pylorus-ligated rat test, gastric antisecretory activity; assay type: in vivo, rat (male Charles River Sprague-Dawley derived); conditions: PO, read-out: ED50, inhibition of Total Acid Output
Procedure: The gastric antisecretory activity of the compounds shown in Table II was determined by the pylorus-ligated rat test described by Shay et al. in Gastroenterol. 1954, 26, 906. In this method, male Charles River Sprague-Dawley derived rats weighing 150-300 grams were deprived of food but not water for 18-24 hours prior to use. Water was withheld during the experiment, however. The rats were weighed, lightly anesthetized with ether and the pylorus ligated according to the method of Shay et al., supra. The treatment or vehicle control was then administered intraperitoneally (IP) or orally (PO). When administered by the IP route, the administration was done 30 minutes before ligation. When administered by the PO route, the administration was done prior to ligation (about 1/2 to 3 hours before). Rats were housed two per cage and sacrificed with carbon dioxide 3 hours after ligation. Their stomachs were removed, rinsed, and contents emptied into a graduated centrifuge tube. The tubes were centrifuged, the volume of gastric juice was recorded, and any samples obviously contaminated by feces, food or blood were eliminated. A 1 mL aliquot of gastric juice was titrated with 0.1N NaOH to a pH of 7.0-7.4. The volume of gastric juice secreted, the acid concentration, and the product of the volume times the concentration, i.e. the total amount of acid secreted, were measured. The total acid output was calculated by multiplying the volume of gastric juices collected times the hydrogen ion concentration (amount of NaOH added to a sample to reach a pH of 7.0-7.4) and dividing that value by 10. The mean value of the total acid output for a control group of rats was then subtracted from the mean value of the total acid output for the group of rats tested at the same dose. That value was then divided by the mean value of total acid output for the control group and the resulting number was multiplied by 100 to provide a Percent Inhibition value, which values are reported in Table II. The […] was determined statistically as the dose at which a 50% inhibition would be realized.

`CC1(C)O[C@H]2[C@@H]3OS(=O)(=O)O[C@@H]3CO[C@@]2(COS(N)(=O)=O)O1` [Example 1, 2,3-O-(1-Methylethylidene)-4,5-O-sulfonyl-β-D-fructopyranose Sulfamate] gave an ED50 (tonic extensor seizure) of 6.3 mg/kg and an ED50 (Total Acid Output) of 20 mg/kg.
